Data on six compounds can be found in patent publication US4440761A, “Interferon inducer, a process for producing the same and pharmaceutical composition containing the same” (The Kitasato Institute, priority 1980, dated 1984).

For data set [1], the system named is interferon. Particulars: background, cited from earlier work.
Data set [2] has as its system spleen cell. As to the kind of experiment: IF induction in vitro, rabbit spleen cells (determined in RK-13). The format is cell-based. Particulars: 1.0* μg/ml, control.
The test system of data set [3] is spleen cell. Description: IF induction in vitro, mouse spleen cells (determined in L cells). The class given is cell-based. The settings on record: 1.0* μg/ml, control.
The test system of data set [4] is Human spleen. As to the kind of experiment: IF induction in vitro, human spleen (determined in FL cells). The format is cell-based. Particulars: 1.0* μg/ml, control. Here is the method: A spleen cell suspension (10^7 cells/ml) was prepared by the method of hereinafter described Experiment 1 using an Eagle MEM medium (commercial product of Nissui Seiyaku K.K., Tokyo) containing a 10% calf serum (which was replaced by a 10% fetal cattle serum in the cases of human tests), each of which fraction (1 ml) was added with a given concentration of the sample and incubated overnight at a given temperature. The cultured liquor was centrifuged to separate a supernatant which was used for determining the IF activity induced. In the case of humans, the fresh spleen was collected from a person (adult deceased by external wounds) and used for the preparation of a leucocytes suspension on each occasion, and also blood was collected from the vein at the upper arm of a person (adult), from which the serum was separated to use for the preparation of a serum suspension of each occasion.
The IF activities were determined by using the cells shown in Table 5 in a similar manner to that hereinafter described in Experiment 1.

The conditions of data set [5]: 56° C. for 5 hours; cited from earlier work.

Entries after “also recorded” stand apart in the source; their conditions may differ. Like-named read-outs stand apart in the source and are kept apart here.

In the case of `O=C(/C=C/c1ccc(O)cc1)C1=C(O)[C@](O)([C@@H]2O[C@H](CO)[C@@H](O)[C@H](O)[C@H]2O)C(O)=C(/C=C2/C(=O)C(C(=O)/C=C/c3ccc(O)cc3)=C(O)[C@@](O)([C@@H]3O[C@H](CO)[C@@H](O)[C@H](O)[C@H]3O)C2=O)C1=O` [carthamine], the IF inducing activity entry in data set [1] is “no IF inducing activity”.
Take Poly I:C: the results for the “IF activity in vitro” value in data set [2], in data set [3] and in data set [4] were 160, 75 and below 10, respectively.
As for carthamone, the IF inducing activity entry in data set [1] was “no IF inducing activity”.
On to neocarthamine, for which the IF inducing activity entry in data set [1] is reported as “no IF inducing activity”.
In the case of phytohemagglutinin, the IF inducing activity result in data set [1] was “very weak”; in data set [1] (listed as phytohemagglitinin) it was “extremely low”. For the same compound, in data set [5], the “IF-inducing activity on heating” value was “inactivated”.
On to pokeweed mitogen, for which, in data set [1], the IF inducing activity entry is “very weak; also recorded: extremely low”. In data set [5], the “IF-inducing activity on heating” value is listed as “inactivated”.
